Source: patent US9725465B2, “Biaryl acetamide compounds and methods of use thereof” (Ambit Biosciences Corporation, priority 2013, dated 2017)

Tests used:
[1] = target: FLT3-ITD (Homo sapiens (Human), UniProt P36888, INS600HVDFREYEYD); assay: pFLT3 MSD assay, Ba/F3 FLT3-ITD; format: cell-based; details: Ba/F3 FLT3-ITD cells, 2 hours, read-out: BaF3-FLT3-ITD pFlt3 IC50
Procedure: In certain other embodiments, the compounds disclosed herein are tested in a FLT3 phosphorylation assay to determine their cellular potency against one or both of FLT3-ITD and FLT3 tyrosine kinase domain mutants. In certain embodiments, the FLT3 phosphorylation assay assesses the potency of compounds as FLT3 inhibitors by measuring the reduction in formation of phosphorylated FLT3 in the cells.
Gene constructs containing the human FLT3 sequences FLT3-ITD, FLT3-ITD-F691L, FLT3-ITD-D835V and FLT3-D835V were synthesized by reverse translation of the human protein sequences, with codons optimized for mammalian expression. Sequence of the internal tandem duplication (ITD) was based on the MV4-11 ITD sequence. […] Viruses were transduced into the IL-3-dependent, murine macrophage cell line, Ba/F3, and selected for puromycin resistance and IL-3 independence. All cell lines were cloned by limiting dilution and clones were used for all subsequent cell assays.
Briefly, cell lines were serum starved overnight in media containing 0.5% FBS. Cells were plated at 200,000 cells/well in 96-well round bottom plates in low serum, and 3-fold serial dilutions of test compounds were added for 2 hours at 37° C. […] After an overnight incubation at 4° C. shaking at 450 rpm, plates were washed with MSD wash buffer, and captured FLT3 was detected with biotinylated-anti-phosphotyrosine antibody 4G10 (Millipore) and SulfoTAG-streptavidin (MSD) for 1 hour at room temperature, and read on an MSD SECTOR Imager 6000. Percent remaining phospho-FLT3 in compound-treated cells was normalized to DMSO-treated cells, and IC50s were determined using Igor Pro software. All compounds are assayed in duplicate cell and MSD plates.

[2] = target: FLT3 kinase (Homo sapiens (Human), UniProt P36888); assay: Competition binding assay (Kd), FLT3; details: competition binding
[3] = target: KIT kinase (Homo sapiens (Human), UniProt P10721); assay: Competition binding assay (Kd), KIT; details: competition binding
In short: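 Kinase, as T7 phage fusion or HEK-293-expressed DNA-tagged protein, competed off immobilised ligand beads by test compound (eleven-point threefold dilutions, from 100× DMSO stocks). Eluted kinase quantified by qPCR to derive Kd; DMSO used as control.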

FLT3 kinase, sequence (P36888 27-993): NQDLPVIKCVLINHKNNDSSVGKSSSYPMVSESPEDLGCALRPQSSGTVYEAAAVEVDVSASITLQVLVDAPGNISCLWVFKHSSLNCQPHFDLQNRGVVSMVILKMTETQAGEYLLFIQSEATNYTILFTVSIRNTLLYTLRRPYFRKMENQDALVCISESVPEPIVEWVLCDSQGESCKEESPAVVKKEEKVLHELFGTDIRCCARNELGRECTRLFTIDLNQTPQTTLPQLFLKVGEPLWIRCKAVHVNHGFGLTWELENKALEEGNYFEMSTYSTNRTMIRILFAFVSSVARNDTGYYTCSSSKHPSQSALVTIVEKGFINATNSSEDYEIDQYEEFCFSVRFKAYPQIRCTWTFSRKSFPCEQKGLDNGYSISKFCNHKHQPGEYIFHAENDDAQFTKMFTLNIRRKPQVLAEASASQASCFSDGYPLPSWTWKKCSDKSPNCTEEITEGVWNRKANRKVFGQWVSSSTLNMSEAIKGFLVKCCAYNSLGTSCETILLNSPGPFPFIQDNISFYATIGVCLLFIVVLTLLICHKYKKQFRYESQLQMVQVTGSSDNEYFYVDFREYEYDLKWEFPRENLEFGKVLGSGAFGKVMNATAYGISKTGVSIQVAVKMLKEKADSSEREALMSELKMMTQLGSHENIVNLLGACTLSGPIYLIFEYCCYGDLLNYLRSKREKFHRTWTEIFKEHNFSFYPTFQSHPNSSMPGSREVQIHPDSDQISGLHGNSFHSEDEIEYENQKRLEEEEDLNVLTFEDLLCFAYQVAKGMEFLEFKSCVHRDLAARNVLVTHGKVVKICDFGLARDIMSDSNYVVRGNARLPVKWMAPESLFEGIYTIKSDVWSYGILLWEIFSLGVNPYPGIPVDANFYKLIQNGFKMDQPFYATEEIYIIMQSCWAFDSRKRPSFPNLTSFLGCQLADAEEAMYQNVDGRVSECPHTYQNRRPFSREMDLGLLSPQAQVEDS
FLT3-ITD, sequence (P36888 other isoform, or with tags, fused parts or gaps limits assumed, stated change not applied): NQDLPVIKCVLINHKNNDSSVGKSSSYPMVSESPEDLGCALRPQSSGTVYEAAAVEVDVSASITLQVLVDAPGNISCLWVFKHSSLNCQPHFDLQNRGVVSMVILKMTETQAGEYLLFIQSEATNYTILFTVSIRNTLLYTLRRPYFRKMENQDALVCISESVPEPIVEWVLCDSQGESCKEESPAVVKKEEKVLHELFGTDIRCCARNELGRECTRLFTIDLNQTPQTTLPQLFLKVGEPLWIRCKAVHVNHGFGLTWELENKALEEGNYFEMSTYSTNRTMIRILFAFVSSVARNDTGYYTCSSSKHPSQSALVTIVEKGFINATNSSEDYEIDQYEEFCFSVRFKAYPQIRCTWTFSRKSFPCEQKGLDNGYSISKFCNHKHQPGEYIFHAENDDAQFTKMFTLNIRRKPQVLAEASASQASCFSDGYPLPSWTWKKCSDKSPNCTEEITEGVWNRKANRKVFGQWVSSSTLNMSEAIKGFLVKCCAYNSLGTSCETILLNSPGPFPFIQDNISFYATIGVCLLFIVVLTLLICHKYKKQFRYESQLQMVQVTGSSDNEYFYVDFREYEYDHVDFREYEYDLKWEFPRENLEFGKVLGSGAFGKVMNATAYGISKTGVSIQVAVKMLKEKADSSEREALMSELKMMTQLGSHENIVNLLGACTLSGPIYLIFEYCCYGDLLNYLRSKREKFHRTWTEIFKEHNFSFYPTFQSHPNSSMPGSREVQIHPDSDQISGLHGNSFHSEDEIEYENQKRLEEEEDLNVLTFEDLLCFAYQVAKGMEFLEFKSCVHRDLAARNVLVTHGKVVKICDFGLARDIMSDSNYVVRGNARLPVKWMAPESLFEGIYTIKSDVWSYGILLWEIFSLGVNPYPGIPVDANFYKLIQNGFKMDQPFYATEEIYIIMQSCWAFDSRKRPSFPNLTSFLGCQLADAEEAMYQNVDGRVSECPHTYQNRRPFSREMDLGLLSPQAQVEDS
KIT kinase, sequence (P10721 26-976): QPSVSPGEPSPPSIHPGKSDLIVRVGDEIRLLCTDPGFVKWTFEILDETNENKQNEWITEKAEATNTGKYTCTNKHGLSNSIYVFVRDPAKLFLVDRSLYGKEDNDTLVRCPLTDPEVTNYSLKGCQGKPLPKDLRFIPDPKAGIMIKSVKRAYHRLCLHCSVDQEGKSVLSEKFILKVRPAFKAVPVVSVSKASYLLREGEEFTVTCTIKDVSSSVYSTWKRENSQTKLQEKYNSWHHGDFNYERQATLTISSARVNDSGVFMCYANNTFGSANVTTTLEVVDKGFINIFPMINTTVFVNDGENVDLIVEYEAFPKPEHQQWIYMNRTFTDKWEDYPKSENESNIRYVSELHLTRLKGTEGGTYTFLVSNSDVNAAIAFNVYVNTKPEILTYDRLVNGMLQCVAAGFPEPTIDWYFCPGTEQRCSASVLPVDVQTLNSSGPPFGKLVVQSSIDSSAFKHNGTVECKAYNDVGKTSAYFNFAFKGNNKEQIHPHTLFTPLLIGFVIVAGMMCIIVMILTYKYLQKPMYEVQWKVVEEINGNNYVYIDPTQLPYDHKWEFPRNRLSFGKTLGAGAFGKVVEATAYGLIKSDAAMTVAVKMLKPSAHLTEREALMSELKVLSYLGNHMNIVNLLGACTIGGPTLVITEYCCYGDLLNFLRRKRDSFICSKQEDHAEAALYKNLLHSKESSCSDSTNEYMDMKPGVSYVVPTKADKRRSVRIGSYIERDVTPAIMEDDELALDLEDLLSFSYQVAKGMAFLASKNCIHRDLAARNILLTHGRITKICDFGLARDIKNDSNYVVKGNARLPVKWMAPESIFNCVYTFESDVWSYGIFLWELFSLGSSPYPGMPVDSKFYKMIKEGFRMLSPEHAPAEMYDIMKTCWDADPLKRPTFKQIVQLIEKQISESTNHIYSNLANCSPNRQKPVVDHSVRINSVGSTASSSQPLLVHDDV

Structure (SMILES)	IC50 [1]	Kd [2]	Kd [3]
COc1cc2ncc(-c3ccc(CC(=O)Nc4cc(C5(C(F)(F)F)CC5)on4)cc3)nc2cc1OC [Example 1, 2-(4-(6,7-dimethoxyquinoxalin-2-yl)phenyl)-N-(5-(1-(trifluoromethyl)cyclopropyl)isoxazol-3-yl)acetamide]	< 10 nM		
CC(C)(C)c1cc(NC(=O)Cc2ccc(-c3cnc4[nH]ccc4c3)cc2)no1 [Example 25, 2-(4-(1H-pyrrolo[2,3-b]pyridin-5-yl)phenyl)-N-(5-(tert-butyl)isoxazol-3-yl)acetamide]	< 10 nM		
CC(C)(c1cc(NC(=O)Cc2ccc(-c3cnc4[nH]ccc4c3)cc2)no1)C(F)(F)F [Example 26, 2-(4-(1H-pyrrolo[2,3-b]pyridin-5-yl)phenyl)-N-(5-(1,1,1-trifluoro-2-methylpropan-2-yl)isoxazol-3-yl)acetamide]	< 10 nM		
CC(C)(C)c1cc(NC(=O)Cc2ccc(-c3cnc4[nH]ccc4c3)cc2F)no1 [Example 27, N-(5-(tert-butyl)isoxazol-3-yl)-2-(2-fluoro-4-(1H-pyrrolo[2,3-b]pyridin-5-yl)phenyl)acetamide]	< 10 nM		
O=C(Cc1ccc(-c2cnc3[nH]ccc3c2)cc1F)Nc1cc(C2(C(F)(F)F)CC2)on1 [Example 28, 2-(2-fluoro-4-(1H-pyrrolo[2,3-b]pyridin-5-yl)phenyl)-N-(5-(1-(trifluoromethyl)cyclopropyl)isoxazol-3-yl)acetamide]	< 10 nM		
COc1cc2ncc(-c3cnc(CC(=O)Nc4cc(C(C)(C)C(F)(F)F)on4)c(F)c3)nc2cc1OC [Example 229, 2-[5-(6,7-dimethoxyquinoxalin-2-yl)-3-fluoro-2-pyridyl]-N-[5-(2,2,2-trifluoro-1,1-dimethyl-ethyl)isoxazol-3-yl]acetamide]		< 5 nM	< 5 nM
COc1cc2nc(-c3ccc(CC(=O)Nc4cc(C5(C(F)(F)F)CC5)n[nH]4)c(F)c3)cnc2cc1OCCN1CCOCC1 [Example 230, 2-[2-fluoro-4-[7-methoxy-6-(2-morpholino-ethoxy)quinoxalin-2-yl]phenyl]-N-[3-[1-(trifluoro-methyl)cyclopropyl]-1H-pyrazol-5-yl]acetamide]		< 5 nM	< 5 nM
COc1cc2nc(-c3ccc(CC(=O)Nc4cc(C5(C(F)(F)F)CC5)on4)cc3)cnc2cc1OCCN1CCOCC1 [Example 231, 2-[4-[7-methoxy-6-(2-morpholinoethoxy)quinoxalin-2-yl]phenyl]-N-[5-[1-(trifluoromethyl)cyclo-propyl]isoxazol-3-yl]acetamide]		< 5 nM	< 5 nM
COc1cc2cc(-c3ccc(CC(=O)Nc4cc(C5(C(F)(F)F)CC5)on4)c(F)c3)cnc2cc1OCCN1CCOCC1 [Example 232, 2-[2-fluoro-4-[6-methoxy-7-(2-morpholinoethoxy)-3-quinolyl]phenyl]-N-[5-[1-(trifluoromethyl)cyclo-propyl]isoxazol-3-yl]acetamide]		< 5 nM	< 5 nM
COc1cc2nc(-c3ccc(CC(=O)Nc4cc(C5(C(F)(F)F)CC5)on4)c(F)c3)cnc2cc1C(C)(O)CO (centres unmarked) [Example 233, 2-[4-[6-(1,2-dihydroxy-1-methyl-ethyl)-7-methoxy-quinoxalin-2-yl]-2-fluoro-phenyl]-N-[5-[1-(trifluoro-methyl)cyclopropyl]isoxazol-3-yl]acetamide]		< 5 nM	< 5 nM
COc1cc2ncc(-c3ccc(CC(=O)Nc4cc(C5(C(F)(F)F)CC5)on4)c(F)c3)nc2cc1OCCN1CCOCC1 [Example 234, 2-[2-fluoro-4-[6-methoxy-7-(2-morpholino-ethoxy)quinoxalin-2-yl]phenyl]-N-[5-[1-(trifluoro-methyl)cyclopropyl]isoxazol-3-yl]acetamide]		< 5 nM	< 5 nM
COc1cc2nc(-c3ccc(CC(=O)Nc4cc(C(C)(C)C(F)(F)F)n[nH]4)c(F)c3)cnc2cc1OCCN1CCOCC1 [Example 235, 2-[2-fluoro-4-[7-methoxy-6-(2-morpholino-ethoxy)quinoxalin-2-yl]phenyl]-N-[3-(2,2,2-trifluoro-1,1-dimethyl-ethyl)-1H-pyrazol-5-yl]acetamide]		< 5 nM	< 5 nM
COc1cc2ncc(-c3ccc(CC(=O)Nc4cc(C5(C(F)(F)F)CC5)on4)c(F)c3)nc2cc1OCC(O)CO (centres unmarked) [Example 236, 2-[4-[7-(2,3-dihydroxypropoxy)-6-methoxy-quinoxalin-2-yl]-2-fluoro-phenyl]-N-[5-[1-(trifluoromethyl)cyclo-propyl]isoxazol-3-yl]acetamide]		< 5 nM	< 5 nM
COc1cc2nc(-c3ccc(CC(=O)Nc4cc(C5(C(F)(F)F)CC5)on4)c(F)c3)cnc2cc1OCCCNC(C)=O [Example 237, 2-[4-[6-(3-acetamidopropoxy)-7-methoxy-quinoxalin-2-yl]-2-fluoro-phenyl]-N-[5-[1-(trifluoromethyl)cyclo-propyl]isoxazol-3-yl]acetamide]		< 5 nM	< 5 nM
COc1cc2nc(-c3ccc(CC(=O)Nc4cc(C5(C(F)(F)F)CC5)on4)c(F)c3)cnc2cc1OCC(O)CO (centres unmarked) [Example 238, 2-[4-[6-(2,3-dihydroxypropoxy)-7-methoxy-quinoxalin-2-yl]-2-fluoro-phenyl]-N-[5-[1-(trifluoromethyl)cyclo-propyl]isoxazol-3-yl]acetamide]		< 5 nM	< 5 nM
COc1cc2ncc(-c3ccc(CC(=O)Nc4cc(C5(C(F)(F)F)CC5)on4)c(F)c3)nc2cc1OCC(C)(C)O [Example 239, 2-[2-fluoro-4-[7-(2-hydroxy-2-methyl-propoxy)-6-methoxy-quinoxalin-2-yl]phenyl]-N-[5-[1-(trifluoro-methyl)cyclopropyl]isoxazol-3-yl]acetamide]		< 5 nM	< 5 nM
COc1cc2nc(-c3ccc(CC(=O)Nc4cc(C5(C(F)(F)F)CC5)on4)c(F)c3)cnc2cc1OCCN1CCCOCC1 [Example 240, 2-[2-fluoro-4-[7-methoxy-6-[2-(1,4-oxazepan-4-yl)ethoxy]quinoxalin-2-yl]phenyl]-N-[5-[1-(trifluoromethyl)cyclo-propyl]isoxazol-3-yl]acetamide]		< 5 nM	< 5 nM
COc1cc2nc(-c3ccc(CC(=O)Nc4cc(C5(C(F)(F)F)CC5)on4)c(F)c3)cnc2cc1OCCN1CCNCC1 [Example 241, 2-[2-fluoro-4-[7-methoxy-6-(2-piperazin-1-ylethoxy)quinoxalin-2-yl]phenyl]-N-[5-[1-(trifluoromethyl)cyclo-propyl]isoxazol-3-yl]acetamide]		< 5 nM	< 5 nM
COc1cc2nc(-c3ccc(CC(=O)Nc4cc(C5(C(F)(F)F)CC5)on4)c(F)c3)cnc2cc1OCCN1CCO[C@H](C)C1 [Example 242, 2-[2-fluoro-4-[7-methoxy-6-[2-[(2R)-2-methylmorpholin-4-yl]ethoxy]quinoxalin-2-yl]phenyl]-N-[5-[1-(trifluoromethyl)cyclo-propyl]isoxazol-3-yl]acetamide]		< 5 nM	< 5 nM
COc1cc2nc(-c3ccc(CC(=O)Nc4cc(C5(C(F)(F)F)CC5)on4)c(F)c3)cnc2cc1OCCN1CCOC[C@@H]1C [Example 243, 2-[2-fluoro-4-[7-methoxy-6-[2-[(3S)-3-methylmorpholin-4-yl]ethoxy]quinoxalin-2-yl]phenyl]-N-[5-[1-(trifluoromethyl)cyclo-propyl]isoxazol-3-yl]acetamide]		< 5 nM	< 5 nM
COc1cc2nc(-c3ccc(CC(=O)Nc4cc(C5(C(F)(F)F)CC5)on4)c(F)c3)cnc2cc1OCCN1CC2CCC(C1)O2 [Example 244, 2-[2-fluoro-4-[7-methoxy-6-[2-(8-oxa-3-azabicyclo[3.2.1]octan-3-yl)ethoxy]quinoxalin-2-yl]phenyl]-N-[5-[1-(trifluoromethyl)cyclo-propyl]isoxazol-3-yl]acetamide]		< 5 nM	< 5 nM
COc1cc2nc(-c3ccc(CC(=O)Nc4cc(C5(C(F)(F)F)CC5)on4)c(F)c3)cnc2cc1OCCN1C2CCC1COC2 [Example 245, 2-[2-fluoro-4-[7-methoxy-6-[2-(3-oxa-8-azabicyclo[3.2.1]octan-8-yl)ethoxy]quinoxalin-2-yl]phenyl]-N-[5-[1-(trifluoromethyl)cyclo-propyl]isoxazol-3-yl]acetamide]		< 5 nM	< 5 nM
COc1cc2nc(-c3ccc(CC(=O)Nc4cc(C(C)(C)C(F)(F)F)on4)c(F)c3)cnc2cc1OCC(C)(C)O [Example 246, 2-[2-fluoro-4-[6-(2-hydroxy-2-methyl-propoxy)-7-methoxy-quinoxalin-2-yl]phenyl]-N-[5-(2,2,2-trifluoro-1,1-dimethyl-ethyl)isoxazol-3-yl]acetamide]		< 5 nM	< 5 nM
COc1cc2nc(-c3ccc(CC(=O)Nc4cc(C5(C(F)(F)F)CC5)on4)c(F)c3)cnc2cc1OCCN1CCOC[C@H]1C [Example 247, 2-[2-fluoro-4-[7-methoxy-6-[2-[(3R)-3-methylmorpholin-4-yl]ethoxy]quinoxalin-2-yl]phenyl]-N-[5-[1-(trifluoromethyl)cyclo-propyl]isoxazol-3-yl]acetamide]		< 5 nM	< 5 nM
COc1cc2nc(-c3ccc(CC(=O)Nc4cc(C5(C(F)(F)F)CC5)on4)c(F)c3)cnc2cc1OCCN1CCO[C@@H](C)C1 [Example 248, 2-[2-fluoro-4-[7-methoxy-6-[2-[(2S)-2-methylmorpholin-4-yl]ethoxy]quinoxalin-2-yl]phenyl]-N-[5-[1-(trifluoromethyl)cyclo-propyl]isoxazol-3-yl]acetamide]		< 5 nM	< 5 nM
COc1cc2nc(-c3ccc(CC(=O)Nc4cc(C5(C(F)(F)F)CC5)on4)c(F)c3)cnc2cc1OCC(C)(C)O [Example 249, 2-[2-fluoro-4-[6-(2-hydroxy-2-methyl-propoxy)-7-methoxy-quinoxalin-2-yl]phenyl]-N-[5-[1-(trifluoro-methyl)cyclopropyl]isoxazol-3-yl]acetamide]		< 5 nM	< 5 nM
